# Where “and” joins values, the source holds several entries; their conditions need not be identical. Equal entries are not always repeated.
# Key:
# [1] = system: HFHSD-fed obese C57BL6/J mice; assay: Fasting glucose in HFHSD-fed mice; assay type: in vivo, mouse; set-up: Fasting glucose, Average / Fasting glucose (individual mouse): unit not given here; settings: Figure 5K, 100 mg/kg/day
# Method: Ptgr2^+/+ and Ptgr2^−/− mice were created by the Transgenic Mouse Model Core Facility of the National Core Facility for Biopharmaceuticals, Ministry of Science and Technology, Taiwan and the Animal Resources Laboratory of National Taiwan University Centers of Genomic and Precision Medicine. C57BL6/J mice were purchased from National Laboratory Animal Center. All animal experiments were performed according to institutional ethical guidelines and were approved by the Institutional Animal Care and Use Committee (IACUC) of National Taiwan University Medical College (IACUC No.: 20140456). All mice were housed under standard conditions at 23 °C and 12/12 h. light/dark (7 AM–7 PM) cycle in animal centers of the National Taiwan University Medical College, which is accredited by the Association for Assessment and Accreditation of Laboratory Animal Care International (AAALAC). Mice were provided shelters and sticks weekly. We used adequate anesthetic procedure to reduce pain, suffering and distress according to our animal center regulation. We reported expected or unexpected adverse events to the veterinarian of our animal center. The humane endpoints include 20% weight loss, rough hair coat, hunched posture, lethargy or persistent, or any condition interfering with eating or drinking. Eight-week-old male mice were fed on either a high-fat high-sucrose diet (HFHSD) (cat. no. D12331, Research Diets) or a regular chow diet (cat no. 5001, Lab Diet). BPRPT0245 was dissolved 3% dimethylacetamide and 10% cremophor in water and administered daily to HFHSD-fed obese C57BL6/J mice by oral gavage (100 mg/kg/day).
# hPTGR2 = hPTGR2 (Homo sapiens, UniProt Q8N8N7); assay: 15-keto-PGE2-dependent PPARγ trans-activation in PTGR2-transfected HEK293T cells; assay type: cell-based; set-up: expressed in transfected cells; host or cells: HEK293T; settings: (+) Ptgr2
# Sequence of hPTGR2 (Q8N8N7 whole entry): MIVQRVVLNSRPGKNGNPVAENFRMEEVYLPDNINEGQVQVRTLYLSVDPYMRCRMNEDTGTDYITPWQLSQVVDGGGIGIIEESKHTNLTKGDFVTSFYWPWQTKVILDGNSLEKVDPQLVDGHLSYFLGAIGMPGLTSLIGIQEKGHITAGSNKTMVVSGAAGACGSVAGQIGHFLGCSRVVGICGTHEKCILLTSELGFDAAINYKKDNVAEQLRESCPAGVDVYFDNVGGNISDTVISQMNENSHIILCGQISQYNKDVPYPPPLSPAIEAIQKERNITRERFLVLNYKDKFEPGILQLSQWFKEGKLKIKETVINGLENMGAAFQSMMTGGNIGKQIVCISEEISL
# Source text: Based on these findings from the Ptgr2^−/− mice, we next searched for druggable chemical inhibitors that can effectively suppress human PTGR2 (hPTGR2) enzymatic activity. Using a high-throughput screening of 12,500 chemicals, we identified 31 hits and generated 282 derivatives using a molecular hybridization strategy among the hits. The in vitro IC50 (the half-maximal inhibitory concentration), EC50 (the concentration for half-maximal effect), and the compound’s activity to restore 15-keto-PGE2-dependent PPARγ trans-activation in HEK293T cells expressing recombinant PTGR2 were profiled.
# Gal4-PPARγ/UAS-LUC reporter assay was conducted as previously described (Wu et al, [2008]) with minor modifications. Briefly, HEK293T cells were seeded in 24-well plates at 1 × 10^5 cells/well. After 24-h growth, a DNA solution containing UASG reporter construct, GAL4-PPAR expression plasmid, and TK-Rluc (Renilla luciferase) reporter construct (internal control) was transfected using TurboFect™ transfection reagent (cat. no. R0532, Thermo Fisher). Cells were treated and harvested after another 24 and 48 h, respectively. Luciferase activity was measured using Luc-Pair™ Duo-Luciferase HS Assay Kit (cat. no. LF600, Promega) and normalized with the TK reporter signal.
# wild-type mPPARγ = molecular target: T1, wild-type mPPARγ (Mus musculus, UniProt P37238); assay: PPRE reporter assay in HEK293T cells, wild-type mPPARγ; assay type: cell-based, murine; set-up: key to PPRE reporter activity, Fig 1M replicates: luciferase activity normalized to TK reporter signal; settings: for PPRE reporter activity, Fig 1M replicates: PPARg WT
# T1 construct: host or cells: HEK293T
# T1 sequence (P37238 1-505): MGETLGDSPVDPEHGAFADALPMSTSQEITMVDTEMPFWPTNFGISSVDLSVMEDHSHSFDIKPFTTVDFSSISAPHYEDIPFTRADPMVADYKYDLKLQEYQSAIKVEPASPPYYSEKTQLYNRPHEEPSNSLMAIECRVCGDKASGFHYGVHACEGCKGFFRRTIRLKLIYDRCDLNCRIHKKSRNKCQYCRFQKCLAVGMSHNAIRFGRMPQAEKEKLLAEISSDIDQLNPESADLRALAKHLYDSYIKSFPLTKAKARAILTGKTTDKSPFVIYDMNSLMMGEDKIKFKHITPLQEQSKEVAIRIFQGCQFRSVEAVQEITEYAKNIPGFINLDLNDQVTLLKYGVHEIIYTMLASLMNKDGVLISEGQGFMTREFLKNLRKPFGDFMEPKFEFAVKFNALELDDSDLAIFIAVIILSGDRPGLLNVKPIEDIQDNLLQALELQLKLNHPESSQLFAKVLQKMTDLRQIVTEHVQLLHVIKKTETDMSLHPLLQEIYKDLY
# Method: For PPRE reporter assay, HEK293T cells were seeded in 24-well plates at 1 × 10^5 cells/well. […] The luciferase activity was measured by Luc-Pair™ Duo-Luciferase HS Assay Kit (cat. no. LF600, Promega, USA) and normalized to the TK reporter signal.
# [2] = system: HFHSD-fed obese C57BL6/J mice; assay: Tissue weights (fat pads, liver, BAT); assay type: in vivo, mouse
# [3] = system: HFHSD-fed obese C57BL6/J mice; assay: Adipocyte size and number in perigonadal fat (H&E stain); assay type: in vivo, mouse; settings: 40 mg/kg/day ip, vs vehicle
# Source text: Tissues were fixed in 4% paraformaldehyde and then embedded in paraffin before sectioning and staining. The stained sections were scanned and analyzed using a MIRAX viewer (http://www.zeiss.de/mirax) and Image J software (http://rsbwed.nih.gov/ij/).
# [4] = Figure 2J, individual mice, listed as 15kPGE2, in g (unit assumed)
smiles,measurement,setting,value
Cc1[nH]c2nc(C(C)N3CCN(c4ccccc4)CC3)nn2c(=O)c1Cc1ccc(F)cc1 (centres unmarked) [BPRPT245],"Fasting glucose, Average",[1]; week 0,172.4
same,"Fasting glucose, Average",[1]; week 2,215
same,"Fasting glucose, Average",[1]; week 4,172.4
same,"Fasting glucose, Average",[1]; week 6,168.6
same,"Fasting glucose, Average",[1]; week 8,182.6
same,"Fasting glucose, Average",[1]; week 10,183.2
same,"Fasting glucose, Average",[1]; week 12,184.933
same,"Fasting glucose, Average",[1]; week 14,181.467
same,"Fasting glucose, Average",[1]; week 16,186.667
same,"Fasting glucose, Average",[1]; week 18,173.933
same,"Fasting glucose, Average",[1]; week 20,159.8
same,"Fasting glucose, Average",[1]; week 22,158.933
same,"Fasting glucose, Average",[1]; week 24,164.4
same,Figure 5C relative PPARγ trans-activation (replicates),hPTGR2; 16nM,0.5809 and 0.5894 and 0.6256 and 0.6099 and 0.5702
same,Figure 5C relative PPARγ trans-activation (replicates),hPTGR2; 80nM,0.8628 and 0.8769 and 0.8751 and 0.836 and 0.7826
same,Figure 5C relative PPARγ trans-activation (replicates),hPTGR2; 400nM,0.9481 and 0.8913 and 0.9158 and 0.7904 and 0.8206
same,Figure 5C relative PPARγ trans-activation (replicates),hPTGR2; 2uM,0.9154 and 0.9224 and 0.8575 and 0.8409 and 0.8698
same,Figure 5C relative PPARγ trans-activation (replicates),"hPTGR2; 10uM, (-) Ptgr2 about 1, (+) Ptgr2 alone 0.41-0.61",0.9406 and 0.9982 and 0.9802 and 0.9197 and 0.9012
"CCCCCC(=O)CC[C@H]1[C@H](O)CC(=O)[C@@H]1C/C=C\CCCC(=O)O [13,14-dihydro-15-keto-PGE2]","PPRE reporter activity, Fig 1M replicates",wild-type mPPARγ; 1314dh-15kPGE2 5uM,0.8192 and 0.7939 and 0.9277
same,"PPRE reporter activity, Fig 1M replicates",wild-type mPPARγ; 1314dh-15kPGE2 10uM,1.0416 and 0.7874 and 1.0502
"CCCCCC(=O)/C=C/[C@H]1[C@H](O)CC(=O)[C@@H]1C/C=C\CCCC(=O)O [15-keto-PGE2, 15-keto-prostaglandin E2]","PPRE reporter activity, Fig 1M replicates",wild-type mPPARγ; 15kPGE2 1uM,0.8257 and 0.8644 and 0.9986
same,"PPRE reporter activity, Fig 1M replicates",wild-type mPPARγ; 15kPGE2 5uM,1.6663 and 1.771 and 1.8768
same,"PPRE reporter activity, Fig 1M replicates",wild-type mPPARγ; 15kPGE2 10uM,2.316 and 1.9846 and 1.9282
same,"PPRE reporter activity, wild-type mPPARγ",wild-type mPPARγ; HEK293T,dose-dependently increases the reporter activity of PPARγ
same,White fat mass,"[2]; 40 mg/kg/day ip, 3 weeks, HFHSD-fed mice, vs vehicle",reduced
same,BAT weight,[2]; [4],0.1049 and 0.0893 and 0.0681 and 0.1024 and 0.0901 and 0.0904 and 0.0815 and 0.0934 and 0.1303 and 0.0871 and 0.1289 and 0.0981 and 0.1279
same,gonadal fat weight,[2]; [4],1.0948 and 0.4418 and 0.5418 and 0.586 and 0.6631 and 0.6417 and 0.7873 and 0.8763 and 0.4217 and 0.3751 and 0.7101 and 0.437 and 1.2399 and 1.5271
same,inguinal fa (inguinal fat weight),[2]; [4],0.5361 and 0.3262 and 0.2899 and 0.5695 and 0.44 and 0.4775 and 0.4155 and 0.4527 and 0.3306 and 0.2941 and 0.47 and 0.5739 and 0.6454 and 0.6994
same,liver weight,[2]; [4],1.4646 and 1.5001 and 1.364 and 1.198 and 1.291 and 1.4569 and 1.3602 and 1.5387 and 1.535 and 1.2853 and 1.4911 and 1.7319 and 1.4367 and 1.4078
same,mesneteric fat weight,[2]; [4],0.4239 and 0.1584 and 0.1617 and 0.203 and 0.2549 and 0.1777 and 0.3522 and 0.3152 and 0.191 and 0.1812 and 0.1041 and 0.3498 and 0.3664 and 0.5006
same,adipocyte size,[3],smaller
same,number of adipocytes,[3],no difference

# — paper PMC12081876, “Identification of PTGR2 inhibitors as a new therapeutic strategy for diabetes and obesity” (EMBO Molecular Medicine, 2025)
